Assay results as given in patent US9248150B2 (priority 2009, dated 2016).
Several values for one entry are separate records, joined by “and”; a condition that tells them apart may be missing. Equal entries are not always repeated. Entries after “also recorded” stand apart in the source; their conditions may differ.

Legend:
TRPV1 mRNA [1] = test: Kidney TRPV1 mRNA by real time RT-PCR; assay type: in vivo, male Wistar rats; settings: 72 h
Excerpt: (§1) Kidneys were harvested, total RNA was isolated, reverse transcribed and real time RT-PCR performed substantially as described herein above. FIG. 8A is a bar graph of the increase in mRNA expression for each of KIM-1 (green), NOX3 (blue) and TRPV1 (red) observed. […] Attenuation of these markers by transplatin is indicative of its nephroprotective role.

NOX3 = NOX3 immunoreactivity in cochlea sections; assay type: in vivo, male Wistar rats
NOX3 mRNA [2] = test: NOX3 mRNA by real time RT-PCR in UB/OC-1 cells; assay type: cell-based
Method: RNA was isolated by adding 1 ml TRI reagent to 100 mg of cochlear tissue or 0.5 ml TRI reagent per well of each six well plate. Tissues were homogenized in TRI reagent using a Polytron (setting 7, 15 sec) and centrifuged at 12,000×g for 10 min at 4° C. The remainder of the procedure was identical to that described in D. Mukherjea et al., NEUROSCIENCE 139:733-740 (2006).
(§2) For real time reverse transcriptase polymerase chain reaction (RT-PCR), one microgram of total RNA was converted to cDNA using iScript cDNA Synthesis Kit (Bio-Rad, Hercules, Calif.) and sample preparations were performed essentially as previously described (D. Mukherjea et al., NEUROSCIENCE 139:733-740 (2006)). Amplification and detection was performed with the Cepheid Smart Cycler Detection System. On completion of amplification, the melting curve analysis was performed by cooling the reaction to 60° C. and then heating slowly 95° C., according to the instruction of manufacturer (Cepheid systems). The cycle number at which the sample reaches the threshold fluorescent intensity is termed the cycle threshold (Ct). The relative change in mRNA levels between untreated control (1) and treated sample (2) was measured using the formula: 2-ΔΔCt (R. Soong et al., Quantitative reverse transcription-polymerase chain reaction detection of cytokeratin 20 in noncolorectal lymph nodes, CLIN. CANCER RES. 7:3423-3429 (2001)). Relative change in mRNA levels between samples was expressed as a percentage of normal control. Negative controls for both target gene and GAPDH was used for all reaction groups. Real time PCR products were analyzed on a 2% agarose gel to verify the correct product sizes and visualization of the amplified product was effected using the dye SyBr Green I (Molecular Probes, Eugene, Oreg.).

[3] = system: TRP and P2x receptor channels in UB/OC-1 cells; test: FM1-43 dye uptake via TRP and P2x channels; assay type: cell-based; settings: for basal FM1-43 uptake (fluorescence): added alone
Excerpt: FM1-43 is selectively taken up by cells expressing the TRP and P2x receptor channels.
Cells were scanned every 6 sec by Argon laser (480 nm) and at the 6th scan FM1-43 dye was dropped on the cells. FIG. 6 is panel of photomicrographs of the cells following dye exposure. […] Each gray-scale image to the right of each fluorescence image is the differential interference constrast image for the cells shown in the corresponding fluorescence image.

UB/OC-1 hair cells = test: Cell viability by trypan blue staining; assay type: cell-based
Method: Cells were then treated with trypan blue and the number of viable cells per high power field determined and expressed as a percent of total cell per field. […] Data are present as the mean±standard error from four independent coverslips.

NOX3 mRNA [4] = test: Kidney NOX3 mRNA by real time RT-PCR; assay type: in vivo, male Wistar rats; settings: 72 h
Excerpt: as §1

KIM-1 mRNA [5] = test: KIM-1 mRNA by real time RT-PCR in UB/OC-1 cells; assay type: cell-based
Method: as §2, with “Negative controls for both target gene and GAPDH was used for all reaction groups.” left out, “Oreg.). […]” for “Oreg.).”

[6] = system: outer hair cells of the organ of Corti; test: Outer hair cell damage by scanning electron microscopy, i.p. transplatin; assay type: in vivo, rat; settings: 72 h
[7] = system: outer hair cells of the organ of Corti; test: Outer hair cell damage/loss by SEM, trans-tympanic transplatin; assay type: in vivo, Wistar rats
Method: Post-treatment ABRs were conducted 72 h later. […] This was abrogated by pretreatment with trans-tympanic transplatin. […] Arrows indicate areas of damage to outer hair cells.

KIM-1 mRNA [8] = test: Kidney KIM-1 mRNA by real time RT-PCR; assay type: in vivo, male Wistar rats; settings: 72 h
Excerpt: as §1

TRPV1 mRNA [9] = test: TRPV1 mRNA by real time RT-PCR in UB/OC-1 cells; assay type: cell-based
Method: as §2, with “Negative controls for both target gene and GAPDH was used for all reaction groups.” left out, “Oreg.). […]” for “Oreg.).”

UB/OC-1 cells [10] = test: ROS generation by H2DCFDA fluorescence, confocal microscopy; assay type: cell-based
Excerpt: Imaging of ROS generation was done as previously described (P. Puntambekar et al., Essential role of Rac1/NADPH oxidase in nerve growth factor induction of TRPV1 expression, J. NEUROCHEM. 95: 1689-1703 (2005)).

KIM-1 = KIM-1 immunoreactivity in cochlea sections; assay type: in vivo, male Wistar rats; settings: 72 h
Method: Cochleas were harvested 72 h later, fixed in 4% paraformaldehyde, decalcified, sectioned and stained for KIM1 immunoreactivity. FIG. 3C is a panel of photomicrographs of the cochlea sections from following the different treatment conditions and stained for KIM-1 immunoreactivity. […] (SVA-stria vascularis, OHC-outer hair cell, RM-Reissner's membrane, SG—spiral ganglion).

[11] = system: AT6.1 rat prostate cancer cells; test: Cisplatin killing of tumor cells (imaging); assay type: cell-based
Excerpt: Cells were fixed with 4% paraformaldehyde and imaged. FIG. 5B is a panel of photomicrographs of the cell images.

UB/OC-1 cells [12] = test: Intracellular Ca2+ release by Fluo-4AM imaging; assay type: cell-based
Method: UB/OC-1 cells were grown on glass coverslips. […] After incubation, cells were washed once with physiological buffer and then imaged by a Fluoview confocal microscope (Olympus Imaging America Inc., Center Valley, Pa., USA).

[13] = system: HEK-293 cells stably transfected with TRPV1 receptor; test: Capsaicin-induced ROS generation in HEK-VR1 cells; assay type: cell-based; settings: transplatin 2.5 μM pre-treatment; data not shown
Excerpt: Thus, transplatin can be useful in the treatment of inflammatory conditions, such as arthritis, inflammatory and chronic pain and cancer pain.

[14] = Body temperature after i.p. transplatin; assay type: in vivo, rat; settings: transplatin 5.5 mg/kg i.p., every 30 min for 150 min, 2 rats
Method: TRPV1 antagonists were initially developed as novel treatments for inflammatory pain. However, it was observed that the administration of classical TRPV1 antagonists produced hyperthermia in animals and human (N. R. Gavva, Body-temperature maintenance as the predominant function of the vanilloid receptor TRPV1. TRENDS PHARMACOL SCI 29:550-557 (2007)), underscoring a role of TRPV1 in the control of body temperature. […] Body temperature was then recorded every 30 min for 150 min. FIG. 11 is a graph of the results observed in two rats (Tp) and a control animal (PBS).

[15] = system: dorsal root ganglion (DRG) cells; test: NGF-induced ROS generation in dorsal root ganglion cells (H2DCFDA); assay type: cell-based, neonatal mice; settings: transplatin 2.5 μM 30 min prior to NGF 100 ng/ml
Method: Recent studies have shown that ROS generation is the single most important mediator of inflammation. Dorsal root ganglion (DRG) cells isolated from neonatal mice have shown increased ROS generation in response to nerve growth factor (NGF; data not shown). […] Fluorescent images were obtained at 0 sec and collected over a period of 5 min after addition of NGF (100 ng/ml). NGF generated ROS is shown by changes in fluorescence intensity over time.

Body weight loss = assay type: in vivo, rat; settings: data not shown
cellular DNA = settings: cited from earlier work
[16] = Cisplatin-induced hearing loss, ABR threshold shifts, i.p. transplatin; assay type: in vivo, male Wistar rats
Excerpt: Data are presented as the mean±standard error of 8 ears examined from 4 animals per group.

[17] = transplatin 5.5 mg/kg i.p. alone
[18] = transplatin 5.5 mg/kg i.p. followed by cisplatin 11 mg/kg i.p.
[19] = transplatin 1, 2.5, 10 μM 30 min prior to cisplatin 5 μM 24 h
[20] = transplatin 1 μM 30 min prior to cisplatin 5 μM
[21] = trans-tympanic transplatin 50 μl of 0.5 mg/ml, then cisplatin 11 mg/kg i.p.
[22] = transplatin 1 mg/kg i.p. then cisplatin 11 mg/kg i.p.

N.N.[Cl][Pt][Cl] [cisplatin, reference compound]
kidney TRPV1 mRNA expression (TRPV1 mRNA [1]; cisplatin 11 mg/kg i.p.): 6 fold | NOX3 immunoreactivity in cochlea (OHC, stria vascularis, spiral ganglion) (NOX3; cisplatin 11 mg/kg i.p., 72 h): increased NOX3 protein | NOX3 mRNA (NOX3 mRNA [2]; cisplatin 5 μM): increase in NOX3 mRNA | uptake of FM1-43 dye ([3]; cisplatin 5 μM alone, 30 min): increased uptake of FM1-43 dye | cell death (UB/OC-1 hair cells; cisplatin 20 μM, 24 h): ~80% | kidney NOX3 mRNA expression (NOX3 mRNA [4]; cisplatin 11 mg/kg i.p.): 4 fold | increase in KIM-1 mRNA expression over vehicle treated controls (KIM-1 mRNA [5]; cisplatin 5 μM, 24 h): 4 fold and 4±0.5 fold | outer hair cells damaged per field, basal turn of organ of Corti ([6]; cisplatin 11 mg/kg i.p.): ~40% | outer hair cell damage/loss ([7]; cisplatin 11 mg/kg i.p., 72 h): ~70% | kidney KIM-1 mRNA expression (KIM-1 mRNA [8]; cisplatin 11 mg/kg i.p.): 50 fold | increase in TRPV1 mRNA expression over vehicle treated controls (TRPV1 mRNA [9]; cisplatin 5 μM, 24 h): 3.6 fold and 3.5±0.7 fold | ROS generation (H2DCFDA fluorescence) (UB/OC-1 cells [10]; cisplatin 2.5 μM, 30 min): marked increase in ROS generation; also recorded: increases ROS generation | KIM-1 immunolabeling in organ of Corti / cochlea sections (KIM-1; cisplatin 11 mg/kg i.p.): induction of KIM-1 immunolabeling | cell loss ([11]; cisplatin 100 μM, 24 h): ~80% | intracellular Ca2+ (Fluo-4AM fluorescence) (UB/OC-1 cells [12]; cisplatin 5 μM, 30 min): increased fluorescence

N.N.N.N.N.N.N.N.N.N.N.N.N.N.[Cl-].[Cl-].[Cl-].[Cl-].[Cl-].[Cl-].[O-2].[O-2].[Ru+3].[Ru+3].[Ru+4] [ruthenium red, reference compound]
basal FM1-43 uptake (fluorescence) [3]: less inhibition of basal fluorescence than transplatin

N.N.[Cl][Pt][Cl] [transplatin, trans-diamminedichloroplatinum (II)]
kidney TRPV1 mRNA expression compared to PBS controls (TRPV1 mRNA [1]; [17]): 0.5 fold | kidney TRPV1 mRNA expression (TRPV1 mRNA [1]; [18]): 1.5 fold | ROS generation by 10 μM capsaicin [13]: inhibited | cisplatin-induced increase in NOX3 in cochlea (NOX3; transplatin 5.5 mg/kg i.p. immediately before cisplatin 11 mg/kg i.p., 72 h): reduced | NOX3 expression in cochlea vs vehicle control (NOX3; transplatin alone): did not increase NOX3 expression | cisplatin-induced increase in NOX3 mRNA (NOX3 mRNA [2]; [19]): attenuated; also recorded: down regulates the increase in NOX3 mRNA | NOX3 mRNA expression (NOX3 mRNA [2]; transplatin alone (1, 2.5 μM)): almost no expression of NOX3 mRNA | body temperature [14]: did not produce any apparent increase in body temperature; also recorded: no apparent trend of higher body temperatures | NGF-induced ROS generation [15]: inhibited ROS generation | basal FM1-43 uptake (fluorescence) [3]: reduced fluorescence below that of the control cells | FM1-43 dye entry after cisplatin [3, 20]: decreased entry of the dye | cell survival (UB/OC-1 hair cells; transplatin 1, 2.5, 10 μM 30 min prior to cisplatin 20 μM 24 h, depending on dose): 80-97% | kidney NOX3 mRNA expression compared to PBS controls (NOX3 mRNA [4]; [17]): 1.3 fold | kidney NOX3 mRNA expression (NOX3 mRNA [4]; [18]): 1.7 fold | cisplatin-induced KIM-1 mRNA (KIM-1 mRNA [5]; [19]): attenuated to control levels | outer hair cells damaged per field, basal turn of organ of Corti ([6]; transplatin 5.5 mg/kg i.p. pretreatment then cisplatin 11 mg/kg i.p.): below 10% | cisplatin-induced outer hair cell damage (SEM morphology) [7, 21]: almost completely abrogated | outer hair cell damage/loss [7, 21]: ~7% | kidney KIM-1 mRNA expression compared to PBS controls (KIM-1 mRNA [8]; [17]): 1.7 fold | kidney KIM-1 mRNA expression (KIM-1 mRNA [8]; [18]): 1.1 fold | cisplatin-induced TRPV1 mRNA expression (TRPV1 mRNA [9]; transplatin 1, 2.5, 10 μM 30 min prior to cisplatin 5 μM 24 h, 10 μM best inhibition): attenuated; also recorded: abrogated by transplatin at higher concentrations | cisplatin-induced increase in ROS generation (UB/OC-1 cells [10]; pretreatment with transplatin 1 μM, then cisplatin 2.5 μM 30 min): attenuated; also recorded: significantly reduced | ROS generation (UB/OC-1 cells [10]; transplatin administered alone): did not stimulate ROS generation | weight loss (Body weight loss; transplatin by itself): did not produce weight loss | cisplatin-mediated weight loss (Body weight loss; transplatin with cisplatin): did not inhibit cisplatin-mediated weight loss | cisplatin-induced KIM-1 immunolabeling in cochlea (KIM-1; [18]): reduced; also recorded: decreased | cell survival compared to vehicle control ([11]; transplatin alone): did not cause significant change in cell survival | time of maximum DNA binding (cellular DNA): 6 h | cisplatin-induced increase in intracellular Ca2+ (UB/OC-1 cells [12]; [20]): abrogated | animals protected [16, 22]: 75% | reductions in ABR thresholds (number protected) [16, 22]: 6 of 8 | auditory protection ([16]; transplatin 3 mg/kg i.p. then cisplatin 11 mg/kg i.p.): complete protection | auditory protection ([16]; transplatin 5.5 mg/kg i.p. then cisplatin 11 mg/kg i.p.): complete protection | ABR thresholds ([16]; transplatin alone): did not affect the ABR thresholds
